In patent US20080267936A1, “Treatment of trauma-hemorrhage with short oligopeptides” (Biotempt B.V., priority 2007, published 2008):

How the values were obtained:
IL-6 [1] = experiment: Hemorrhagic shock model, Example 2: IL-6 mRNA transcripts in tissue by RQ-PCR; type: in vivo, Wistar rats; conditions: 180 minutes after onset of shock, 10 mg/kg, normalized against GAPDH
Procedure: (§1) Experimental procedures: After an acclimatization period of 15 minutes, the rats were randomized into five different groups: 1) sham, 2) hemorrhagic shock (HS), 3) hemorrhagic shock with LQGV (SEQ ID NO:2) treatment (HS/LQGV (SEQ ID NO:2)), 4) hemorrhagic shock with AQGV treatment (HS/AQGV (SEQ ID NO:1)) and 5) hemorrhagic shock with LAGV (SEQ ID NO:3) treatment (HS/LAGV (SEQ ID NO:3). Hemorrhagic shock was induced by blood withdrawal, reducing the circulating blood volume until a mean arterial pressure (MAP) of […] mmHg was reached. This level of hypotension was maintained for 60 minutes. After 30 minutes, rats received either a single bolus injection of 10 mg/kg LQGV (SEQ ID NO:2), AQGV (SEQ ID NO:1), LAGV (SEQ ID NO:3), or 0.9% NaCl solution. The peptides and dosage were based on previous studies, in which we performed dose-escalation experiments (manuscript in preparation). Sixty minutes after induction of hemorrhagic shock, rats were resuscitated by autologous blood transfusion over a period of 30 minutes and monitored for another 120 minutes, after which they were sacrificed (FIG. 7, Panel A). Sham animals underwent the same surgical procedure as the hemorrhagic shock animals, but without performing hemorrhage and administration of peptides.
(§2) Tissue collection and storage: Liver, lungs, ileum and sigmoid were surgically removed at the end of the experiment, snap-frozen, and stored at −80° C., until assayed.
(§3) Evaluation of mRNA levels by real-time quantitative (RQ)-PCR: RNA was isolated using a QIAGEN kit (QIAGEN, Hilden, Germany), according to the manufacturer's instructions. TNF-α, IL-6 and ICAM-1 transcripts were determined by RQ-PCR using an Applied Biosystems 7700 PCR machine (Foster City, Calif., USA) as described previously.^[27] TNF-α, IL-6 and ICAM-1 expression was quantified by normalization against GAPDH.
(§4) Statistical analysis: Statistical analysis was performed using SPSS version 11 software (SPSS Inc., Chicago, Ill.). Inter-group differences were analyzed with Kruskal-Wallis statistical test.

IL-6 [2] = experiment: Hemorrhagic shock model, Example 2: IL-6 plasma levels by ELISA; type: in vivo, Wistar rats; conditions: 10 mg/kg single dose; 120, 150 and 180 minutes after onset of shock
Procedure: (§5) Adult male specific pathogen-free Wistar rats (Harlan CPB, Zeist, The Netherlands), weighing 350 to 400 g were used. Animals were housed under barrier conditions at 25° C. with a twelve-hour light/dark cycle, and were allowed food and water ad libitum. The experimental protocol was approved by the Animal Experiment Committee under the Dutch Experiments on Animals Act and adhered to the rules laid down in this national law that serves the implementation of “Guidelines on the protection of experimental animals” by the Council of Europe (1986), Directive 86/609/EC.
(§6) Synthetic oligopeptides: The oligopeptides (LQGV (SEQ ID NO:2), AQGV (SEQ ID NO:1), and LAGV (SEQ ID NO:3)) were synthesized by Ansynth Service B.V. (Roosendaal, The Netherlands) and dissolved in 0.9% NaCl at a concentration of 10 mg/ml.
Surgical procedures: Rats were food deprived overnight before the experiment, but were allowed water ad libitum. Rats were anesthetized using a mixture of N2O/O2 isoflurane (Pharmachemie B.V., Haarlem, The Netherlands). […]
Experimental procedures: After an acclimatization period of 15 minutes, the rats were randomized into five different groups: 1) sham, 2) hemorrhagic shock (HS), 3) hemorrhagic shock with LQGV (SEQ ID NO:2) treatment (HS/LQGV (SEQ ID NO:2)), 4) hemorrhagic shock with AQGV treatment (HS/AQGV (SEQ ID NO:1)) and 5) hemorrhagic shock with LAGV (SEQ ID NO:3) treatment (HS/LAGV (SEQ ID NO:3). […] Sixty minutes after induction of hemorrhagic shock, rats were resuscitated by autologous blood transfusion over a period of 30 minutes and monitored for another 120 minutes, after which they were sacrificed (FIG. 7, Panel A). […]
Plasma collection and storage: Arterial blood was obtained 15 minutes before and 30, 60, 90, 120, 150 and 180 minutes after onset of hemorrhage (FIG. 7, Panel A). After blood withdrawal, leukocyte numbers were determined using a coulter counter (Beckman Coulter, Mijdrecht, The Netherlands) and corrected for the hematocrit. […]

ICAM-1 = experiment: Hemorrhagic shock model, Example 2: ICAM-1 mRNA transcripts in tissue by RQ-PCR; type: in vivo, Wistar rats; conditions: 180 minutes after onset of shock, 10 mg/kg, normalized against GAPDH
Procedure: as §1, §2, §3, §4

hemorrhagic shock = experiment: Hemorrhagic shock model, Example 1 (bled to MAP 40 mmHg, 0.9% NaCl resuscitation): blood cells, hematocrit, hepatic blood flow; type: in vivo, Wistar rats; conditions: for leukocyte concentration, peptide-treated vs non-treated animals: 5 mg/kg i.v. 30 minutes after induction of shock; for leukocytes, minimum during trauma-hemorrhage: 100% at T0, 5 mg/kg i.v. single bolus 30 minutes after induction of shock; for concentrations of circulating macrophages and granulocytes compared to the non-treated animals: 120 minutes after the onset of hemorrhagic shock, single dose; for blood levels of circulating macrophages and granulocytes / concentrations of circulating macrophages and granulocytes compared with the corresponding experimental group / decrease of circulating macrophages and granulocytes compared with concentrations after trauma-hemorrhage: 180 minutes after onset of trauma-hemorrhage; for arterial hepatic blood flow during the shock period: control group 102.6±23.5%
Procedure: Adult male specific pathogen-free Wistar rats (Harlan CPB, Zeist, The Netherlands), weighing 350 to 400 g were used after a minimum seven-day acclimation period. The animals were housed under barrier conditions and kept at 25° C. with a twelve-hour light/dark cycle. Rats were allowed free access to water and chow (−). All procedures were performed in accordance with the Principles of Laboratory Animal Care (NIH publication No. 86-23, revised 1985) under a protocol approved by the Committee on Animal Research of the Erasmus University (protocol EUR 365).
The rats were fasted overnight but were allowed free access to water before the experiment. Subsequent to endotracheal intubation, the rats were mechanically ventilated with an isoflurane (−) N2O/O2 mixture at 60 breaths/minute. Body temperature was continuously maintained at 37.5° C. by placing the animals on a thermo controlled “half-pipe” (UNO, The Netherlands). Polyethylene tubes (PE-50, Becton Dickinson; St. Michielsgestel, The Netherlands) were flushed with heparin and placed via the right carotid artery in the aorta and in the right internal jugular vein. The animals received no heparin before or during the experiment.
Mean arterial pressures (MAP) was measured using transducers (Becton Dickinson) that were connected in line to an electronic recorder (Hewlett Packard, 78354-A Germany) for electronically calculated mean pressures and continuous measurement of the animal's blood pressure. Under semi-sterile conditions, a median laparotomy was performed and ultrasonic perivascular flow probes (Transonic Systems Inc, Maastricht, The Netherlands) were placed on the common hepatic artery and the portal vein. A supra pubic catheter was placed to monitor the urine production during and after resuscitation.
After an acclimatization period of 20 minutes, the rats were randomized into the following five groups: • Hemorrhagic shock group were bled within ten minutes to a mean arterial pressure (MAP) of 40 mmHg and maintained at this level for 60 minutes by withdrawing or re-infusing shed blood as needed. Thereafter, the animals were resuscitated with plus minus four times the volume of the withdrawn blood over 30 minutes with a 0.9% NaCl solution. • The hemorrhagic shock group+peptide A (LAGV (SEQ ID NO:3); one-letter amino acid code) underwent the same procedure as the hemorrhagic shock group but received a single bolus injection of 5 mg/kg peptide A intravenously 30 minutes after the induction of shock. • The hemorrhagic shock group+peptide B (AQGV (SEQ ID NO:1)) underwent the same procedure as the hemorrhagic shock group and received a single bolus injection of 5 mg/kg peptide B intravenously, 30 minutes after the induction of shock. • The hemorrhagic shock group+peptide C (LQGV (SEQ ID NO:2)) underwent the same procedure as the hemorrhagic shock group and received a single bolus injection of 5 mg/kg peptide C intravenously, 30 minutes after the induction of shock. • Sham group underwent the same procedure as the hemorrhagic shock group without performing the hemorrhage or administration of any kind of peptides.
The hepatic arterial blood flow (QHA) and hepatic portal venous blood flow (QVP) were measured with transit time ultrasonic perivascular flow probes, connected to an ultrasonic meter (T201; Transonic Systems, Inc., Maastricht, NL). Systemic and hepatic hemodynamics were continuously measured. At regular time points, arterial blood samples were taken. The animals were euthanized by withdrawal of arterial blood via the carotid artery.
Plasma collection and storage: Whole arterial blood was obtained at −15, 30, 60, 90, 120, 150 and 180 minutes after induction of shock via the right carotid artery and collected in duplo. 0.2 ml was placed in tubes (Eppendorf EDTA KE/1.3) to be assayed in the coulter counter (−). 0.5 ml was placed in Minicollect tubes (Bio-one, Greiner) centrifuged for five minutes, immediately frozen, and stored at −80° C., until assayed. […]

TNF-α [3] = experiment: Hemorrhagic shock model, Example 2: TNF-α mRNA transcripts in tissue by RQ-PCR; type: in vivo, Wistar rats; conditions: 180 minutes after onset of shock, 10 mg/kg, normalized against GAPDH
Procedure: as §1, §2, §3, §4

TNF-α [4] = experiment: Hemorrhagic shock model, Example 2: TNF-α plasma levels by ELISA; type: in vivo, Wistar rats; conditions: for increase in plasma TNF-α levels during the experiment: 10 mg/kg single bolus 30 minutes after onset of shock, up to 180 minutes; for TNF-α plasma levels: 10 mg/kg single dose after induction of hemorrhagic shock, vs non-treated HS
Procedure: as §5, §6
Surgical procedures: Rats were food deprived overnight before the experiment, but were allowed water ad libitum. Rats were anesthetized using a mixture of N2O/O2 isoflurane (Pharmachemie B.V., Haarlem, The Netherlands). Body temperature was continuously maintained at 37.5° C. by placing the rats on a thermo controlled “half-pipe” (UNO, Rotterdam, The Netherlands). Endotracheal intubation was performed, and rats were ventilated at 60 breaths per minute with a mixture of N2O/O2 2% isoflurane. Polyethylene tubes (PE-50, Becton Dickinson; St. Michielsgestel, The Netherlands) were flushed with heparin and placed via the right carotid artery in the aorta and in the right internal jugular vein. The rats received no heparin before or during the experiment.
as §1
Plasma collection and storage: Arterial blood was obtained 15 minutes before and 30, 60, 90, 120, 150 and 180 minutes after onset of hemorrhage (FIG. 7, Panel A). After blood withdrawal, leukocyte numbers were determined using a coulter counter (Beckman Coulter, Mijdrecht, The Netherlands) and corrected for the hematocrit. Approximately 0.3 ml of blood was placed into mini collect tubes (Greiner, Bio-one, Alphen a/d Rijn, The Netherlands), plasma was obtained by centrifugation (1500 r.p.m.; five minutes), immediately frozen, and stored at −80° C., until assayed.
Measurement of cytokines: TNF-α and IL-6 plasma levels were determined by ELISA (R&D Systems Europe Ltd., Abingdon, UK), according to the manufacturer's instructions.
as §4

[5] = tested on: pro-inflammatory cytokines; conditions: 150 mg/kg; cited from earlier work

| Substance | IL-6 mRNA transcripts in the liver compared to the HS group (IL-6 [1]) | IL-6 plasma levels compared to the non-treated hemorrhagic shock group (IL-6 [2]) | ICAM-1 transcript levels in the liver (ICAM-1) | leukocyte concentration, peptide-treated vs non-treated animals (hemorrhagic shock) | leukocytes, minimum during trauma-hemorrhage (hemorrhagic shock) [%] | concentrations of circulating macrophages and granulocytes compared to the non-treated animals (hemorrhagic shock) | blood levels of circulating macrophages and granulocytes (hemorrhagic shock; 5 mg/kg i.v.) | concentrations of circulating macrophages and granulocytes compared with the corresponding experimental group (hemorrhagic shock; 5 mg/kg i.v.) | decrease of circulating macrophages and granulocytes compared with concentrations after trauma-hemorrhage (hemorrhagic shock; 5 mg/kg i.v.) [%] | blood flow in the hepatic artery during the reperfusion (hemorrhagic shock; reperfusion, 5 mg/kg i.v., shock group 128.9±75.4%, control 83.7±24.2%) [%] | arterial hepatic blood flow during the shock period (hemorrhagic shock; 5 mg/kg i.v.) [%] | TNF-α transcripts in the liver compared to non-treated HS (TNF-α [3]) | increase in plasma TNF-α levels during the experiment (TNF-α [4]) | TNF-α plasma levels (TNF-α [4]) | mRNA expression of pro-inflammatory cytokines in the liver after hemorrhagic shock [5] |
| --- | --- | --- | --- | --- | --- | --- | --- | --- | --- | --- | --- | --- | --- | --- | --- |
| AQGV [synthetic tetrapeptide, alanine replacement variant of LQGV from loop two of the β-subunit of hCG] | significant reduction | significant reduction | did not affect | No significant difference | 47.3±12.4 | decreased | 4,432±0.736 10^9/1 | significantly lower | 29.9 | 78.4±28.3 | 18.1±9.0 | reduction | none | significant reduction |  |
| Alanine-glutamine dipeptide [AG] |  |  |  |  |  |  |  |  |  |  |  |  |  |  | inhibited |
| LAGV [synthetic tetrapeptide, alanine replacement variant of LQGV from loop two of the β-subunit of hCG] | reduction | significant reduction | did not affect | No significant difference | 42.0±8.7 |  |  |  |  |  | 21.3±9.1 | reduction | none | significant reduction |  |
| LQGV [synthetic tetrapeptide, part of the primary structure of loop two of the β-subunit of hCG] | significant reduction | significant reduction | did not affect | No significant difference | 38.2±7.4 | decreased | 3,846±0.636 10^9/1 | significantly lower | 39.2 |  | 21.2±8.6 | significant reduction | none | significant reduction |  |
